US8114847B2, “Selective inhibitors of translesion DNA replication” (Case Western Reserve University, priority 2005, dated 2012)
Values joined by “and” are separate entries in the source; they are usually repeats but may differ in a detail not shown here. Identical values can stand only once. Like-named read-outs stand apart in the source and are kept apart here.

Columns and labels:
[1] = biological target: T1, gp43exo− (bacteriophage T4 DNA polymerase) (Enterobacteria phage T4, UniProt P04415, D219A); assay: biochemical
[2] = biological target: T1, gp43exo− (bacteriophage T4 DNA polymerase); assay type: biochemical
[3] = biological target: T1, gp43exo− (bacteriophage T4 DNA polymerase); assay: biochemical; settings: for kpol: pseudo-first-order conditions
[4] = biological target: T1, gp43exo− (bacteriophage T4 DNA polymerase); assay: biochemical; assay type: biochemical; settings: 500 μM dNTPs
[5] = biological target: T1, gp43exo− (bacteriophage T4 DNA polymerase); assay: biochemical; assay type: biochemical
[6] = biological target: T1, gp43exo− (bacteriophage T4 DNA polymerase); assay type: biochemical; settings: 500 μM analogue; 10 μM dNTPs; unmodified 13/20-mer
[7] = biological target: T1, gp43exo− (bacteriophage T4 DNA polymerase); settings: cited from earlier work; for Kd / kpol: opposite an abasic site, previously determined values (Table 7 footnotes d, e, f not given); for Kd: read-out: KD
[8] = biological target: T1, gp43exo− (bacteriophage T4 DNA polymerase); settings: cited from earlier work

T1 sequence (P04415 whole entry D219A, looked up): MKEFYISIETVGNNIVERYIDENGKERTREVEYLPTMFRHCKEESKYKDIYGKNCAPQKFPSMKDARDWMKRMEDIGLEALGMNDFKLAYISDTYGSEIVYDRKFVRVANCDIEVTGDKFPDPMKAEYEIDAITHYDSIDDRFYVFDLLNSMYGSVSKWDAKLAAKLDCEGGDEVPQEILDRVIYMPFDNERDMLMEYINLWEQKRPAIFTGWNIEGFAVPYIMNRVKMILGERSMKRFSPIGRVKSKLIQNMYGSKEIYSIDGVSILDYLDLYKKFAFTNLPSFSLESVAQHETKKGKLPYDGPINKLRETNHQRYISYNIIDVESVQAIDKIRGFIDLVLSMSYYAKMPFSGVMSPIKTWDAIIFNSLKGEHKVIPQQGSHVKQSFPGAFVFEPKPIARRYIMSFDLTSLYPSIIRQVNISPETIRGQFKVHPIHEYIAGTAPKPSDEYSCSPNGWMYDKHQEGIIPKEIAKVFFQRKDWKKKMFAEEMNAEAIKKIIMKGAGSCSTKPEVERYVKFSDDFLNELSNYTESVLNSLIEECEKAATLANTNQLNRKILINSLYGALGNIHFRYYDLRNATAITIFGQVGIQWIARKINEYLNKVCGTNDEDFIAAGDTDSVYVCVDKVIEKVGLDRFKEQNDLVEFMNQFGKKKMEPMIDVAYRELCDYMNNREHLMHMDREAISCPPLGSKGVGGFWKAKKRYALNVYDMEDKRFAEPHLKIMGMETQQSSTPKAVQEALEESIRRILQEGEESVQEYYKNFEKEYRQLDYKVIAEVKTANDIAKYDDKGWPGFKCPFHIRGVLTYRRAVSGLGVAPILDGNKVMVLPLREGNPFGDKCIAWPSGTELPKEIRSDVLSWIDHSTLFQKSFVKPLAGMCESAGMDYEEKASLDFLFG

SMILES: Nc1nc(N)c2ncn([C@H]3C[C@H](O)[C@@H](COP(=O)(O)OP(=O)(O)OP(=O)(O)O)O3)c2n1 [2,6-DAPTP]
- kpol [1]: 2.4 s⁻¹ and 2.4 ± 0.3 s⁻¹
- kpol higher/faster than that for dATP [1]: 16 fold
- Kd ([1]; read-out: KD): 900 µM
- kext [2]: 0.016 ± 0.003 s⁻¹

SMILES: Nc1ccc2c(ccn2[C@H]2C[C@H](O)[C@@H](COP(=O)(O)OP(=O)(O)OP(=O)(O)O)O2)c1 [5-AITP, 5-Amino-Indole-2′-Deoxyribofuranoside 5″-Triphosphate]
- kpol/KD ([3]; Template A): 0.46 × 10^3 M^−1S^−1
- kpol ([3]; Template A): 0.21 ± 0.01 s⁻¹
- kpol/KD ([3]; Template T): 0.53 × 10^3 M^−1S^−1
- kpol ([3]; Template T): 0.071 ± 0.003 s⁻¹
- inhibition of replication beyond an abasic site ([4]; 20 μM analogue): inhibition is not observed
- inhibition of replication beyond an abasic site ([4]; 350 μM analogue): no effect on the kinetics of elongation
- kpol [5]: 0.17 ± 0.01 s⁻¹
- kpol/KD [5]: 700 M⁻¹ s⁻¹
- inhibition of normal DNA synthesis [6]: do not inhibit normal DNA synthesis

SMILES: O=P(O)(O)OP(=O)(O)OP(=O)(O)OC[C@H]1O[C@@H](n2ccc3cc(C4=CCCCC4)ccc32)C[C@@H]1O [5-CE-ITP]
- Kd [7]: ~10 µM

SMILES: O=P(O)(O)OP(=O)(O)OP(=O)(O)OC[C@H]1O[C@@H](n2ccc3cc(F)ccc32)C[C@@H]1O [5-FITP, 5-Fluoro-indole-2′-deoxyribofuranoside 5′-Triphosphate]
- kpol/KD ([3]; Template A): 0.6 × 10^3 M^−1S^−1
- kpol ([3]; Template A): 0.11 ± 0.06 s⁻¹
- kpol/KD ([3]; Template T): 0.29 × 10^3 M^−1S^−1
- kpol ([3]; Template T): 0.040 ± 0.003 s⁻¹
- inhibition of replication beyond an abasic site ([4]; 20 μM analogue): inhibition is not observed
- inhibition of replication beyond an abasic site ([4]; 350 μM analogue): no effect on the kinetics of elongation
- kpol [5]: 0.30 ± 0.03 s⁻¹
- kpol/KD [5]: 2000 M⁻¹ s⁻¹
- inhibition of normal DNA synthesis [6]: do not inhibit normal DNA synthesis

SMILES: Nc1ccc2[nH]ccc2c1 [5-amino-indole]
- Catalytic efficiency (kpol/KD) [5]: 500 M⁻¹ s⁻¹

SMILES: Fc1ccc2[nH]ccc2c1 [5-fluoro-indole]
- Catalytic efficiency (kpol/KD) [5]: 2000 M⁻¹ s⁻¹

SMILES: O=[N+]([O-])c1ccc2[nH]ccc2c1 [5-nitro-indole]
- Catalytic efficiency (kpol/KD) [8]: 7e+06 M⁻¹ s⁻¹

SMILES: c1ccc(-c2ccc3[nH]ccc3c2)cc1 [5-phenyl-indole]
- Catalytic efficiency (kpol/KD) [5]: 3.8e+06 M⁻¹ s⁻¹

SMILES: Nc1nc(Cl)c2ncn([C@H]3C[C@H](O)[C@@H](COP(=O)(O)OP(=O)(O)OP(=O)(O)O)O3)c2n1 [6-Cl-2APTP]
- kpol [1]: 0.12 and 0.12 ± 0.01 s^−1
- Kd ([1]; read-out: KD): 71 ± 20 µM
- elongated slower compared to dATP, N^7-deaza dATP and N^6-methyl dATP [2]: ~10 fold
- kext [2]: 0.033 ± 0.004 s⁻¹

SMILES: O=P(O)(O)OP(=O)(O)OP(=O)(O)OC[C@H]1O[C@@H](n2cnc3c(Cl)ncnc32)C[C@@H]1O [6-Cl-dATP]
- kpol [1]: 0.28 ± 0.02 s⁻¹
- kpol higher/faster than that for dATP [1]: 2 fold
- Kd ([1]; read-out: KD): 83 ± 16 µM
- kext [2]: 0.031 ± 0.003 s⁻¹

SMILES: Nc1ncnc2c1ccn2[C@H]1C[C@H](O)[C@@H](COP(=O)(O)OP(=O)(O)OP(=O)(O)O)O1 [7-Deaza dATP]
- catalytic efficiency higher than that for 7-deaza dGTP [1]: > 10 fold
- kpol [1]: 1.4 and 1.4 ± 0.1 s^−1
- kpol higher/faster than that for dATP [1]: ~10 fold
- Kd ([1]; KD): 200 µM and 197 µM
- kext [2]: 0.32 ± 0.03 s⁻¹

SMILES: Nc1nc2c(ccn2[C@H]2C[C@H](O)[C@@H](COP(=O)(O)OP(=O)(O)OP(=O)(O)O)O2)c(=O)[nH]1 [7-Deaza dGTP]
- kpol [1]: 0.11 and 0.11 ± 0.02 s^−1
- kpol higher/faster than that for dGTP [1]: ~5 fold
- Kd ([1]; KD): 215 µM
- extension beyond dXMP:abasic site mispair [2]: lack of extension

SMILES: Nc1ncnc2c1[nH]c(=O)n2[C@H]1C[C@H](O)[C@@H](COP(=O)(O)OP(=O)(O)OP(=O)(O)O)O1 [8-Oxo dATP]
- incorporation opposite an abasic site [1]: no incorporation was observed

SMILES: O=P(O)(O)OP(=O)(O)OP(=O)(O)OC[C@H]1O[C@@H](n2ccc3ccccc32)C[C@@H]1O [IndTP, reference compound]
- kpol [8]: 0.28 ± 0.07 s⁻¹
- kpol/KD [8]: 1900 M⁻¹ s⁻¹
- Kd ([8]; read-out: KD): 145 ± 10 µM
- inhibition of replication beyond an abasic site ([4]; 20 μM analogue): inhibition is not observed
- inhibition of replication beyond an abasic site ([4]; 350 μM analogue): no effect on the kinetics of elongation
- inhibition of normal DNA synthesis [6]: do not inhibit normal DNA synthesis

SMILES: CNc1nc2c(ncn2[C@H]2C[C@H](O)[C@@H](COP(=O)(O)OP(=O)(O)OP(=O)(O)O)O2)c(=O)[nH]1 [N^2-methyl dGTP]
- kpol [1]: 0.12 and 0.12 ± 0.02 s^−1
- kpol higher/faster than that for dGTP [1]: ~5 fold
- Kd ([1]; read-out: KD): 245 µM

SMILES: CNc1ncnc2c1ncn2[C@H]1C[C@H](O)[C@@H](COP(=O)(O)OP(=O)(O)OP(=O)(O)O)O1 [N^6-methyl dATP]
- kpol [1]: 5.6+/−0.6 and 5.3 and 5.6 ± 0.6 s^−1
- kpol higher/faster than that for dATP [1]: 40 fold
- Kd ([1]; KD): 190 µM
- kext [2]: 0.71 ± 0.04 s⁻¹

SMILES: COc1nc(N)nc2c1ncn2[C@H]1C[C@H](O)[C@@H](COP(=O)(O)OP(=O)(O)OP(=O)(O)O)O1 [O^6-methyl dGTP]
- kpol [1]: 0.98 and 0.98 ± 0.08 s^−1
- kpol higher/faster than that for dGTP [1]: 40 fold
- Kd ([1]; read-out: KD): 180 µM and 181 µM
- increase in kext compared with dGTP [2]: ~20 fold
- kext [2]: 0.092 ± 0.009 s⁻¹

SMILES: Nc1ncnc2nc[nH]c12 [adenine, reference compound]
- Catalytic efficiency (kpol/KD) [8]: 1500 M⁻¹ s⁻¹

SMILES: Nc1ncnc2c1ncn2[C@H]1C[C@H](O)[C@@H](COP(=O)(O)OP(=O)(O)OP(=O)(O)O)O1 [dATP]
- kpol [8]: ≈ 0.15 s^−1
- kpol/KD [8]: 4300 M⁻¹ s⁻¹
- overall catalytic efficiency opposite an abasic site greater than dGTP [7]: ~35 fold
- kpol [7]: 0.15 s⁻¹ and 0.15 ± 0.01 s⁻¹
- Kd [7]: 35 µM
- kext [2]: 0.25 ± 0.01 s⁻¹

SMILES: Nc1nc2c(ncn2[C@H]2C[C@H](O)[C@@H](COP(=O)(O)OP(=O)(O)OP(=O)(O)O)O2)c(=O)[nH]1 [dGTP]
- kpol [7]: 0.023 ± 0.005 s⁻¹
- Kd [7]: 130 µM
- kext [2]: 0.005 ± 0.001 s⁻¹

SMILES: O=c1[nH]cnc2c1ncn2[C@H]1C[C@H](O)[C@@H](COP(=O)(O)OP(=O)(O)OP(=O)(O)O)O1 [dITP]
- kpol [1]: 0.044 ± 0.003 s⁻¹
- kpol lower than that of dATP [1]: 3.5 fold
- Kd ([1]; read-out: KD): 103 ± 14 µM
- extension beyond dXMP:abasic site mispair [2]: lack of extension

SMILES: c1ccc2[nH]ccc2c1 [indole, reference compound]
- Catalytic efficiency (kpol/KD) [8]: 1900 M⁻¹ s⁻¹
